Experimental data reported in patent publication US20230212180A1, “SUBSTITUTED PYRAZINE COMPOUND, PHARMACEUTICAL COMPOSITION COMPRISING SAME, AND USE THEREOF” (Sichuan Kelun-Biotech Biopharmaceutical Co., Ltd., priority 2020, published 2023).

Tests used:
[1] = molecular target: T1, recombinant full-length human PTPN11 (SHP2) (Homo sapiens, UniProt Q06124); assay: Inhibition of in vitro enzyme activity of SHP2 (DiFMUP fluorescence endpoint assay); format: biochemical; conditions: SHP2 0.5 nM, DiFMUP 200 μM, IRS-1 0.5 μM; 60 min incubation
T1 construct: recombinant full-length human PTPN11 (SHP2), active (SignalChem); purchased SignalChem
T1 sequence (Q06124 1-593): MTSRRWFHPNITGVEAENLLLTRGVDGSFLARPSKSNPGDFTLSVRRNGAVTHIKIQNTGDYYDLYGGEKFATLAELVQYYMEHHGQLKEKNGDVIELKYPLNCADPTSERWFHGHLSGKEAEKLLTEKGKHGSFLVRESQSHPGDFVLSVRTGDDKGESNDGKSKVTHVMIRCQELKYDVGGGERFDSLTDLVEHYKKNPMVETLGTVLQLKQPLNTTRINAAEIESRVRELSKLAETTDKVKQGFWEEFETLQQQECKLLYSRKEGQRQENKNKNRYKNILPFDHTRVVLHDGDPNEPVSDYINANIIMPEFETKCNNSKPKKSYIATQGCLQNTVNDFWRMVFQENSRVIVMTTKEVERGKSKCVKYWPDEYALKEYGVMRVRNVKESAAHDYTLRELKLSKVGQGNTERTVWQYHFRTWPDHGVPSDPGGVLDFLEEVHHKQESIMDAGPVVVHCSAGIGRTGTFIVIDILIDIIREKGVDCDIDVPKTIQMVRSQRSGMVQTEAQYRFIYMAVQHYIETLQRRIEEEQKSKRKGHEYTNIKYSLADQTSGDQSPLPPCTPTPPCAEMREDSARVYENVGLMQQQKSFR
Experimental: Test Example 1: Experiment on the Inhibition of In Vitro Enzyme Activity of SHP2 (Protein Phosphatase)
phosphatase: recombinant full-length human PTPN11 (SHP2), active (SignalChem);
substrate: 6,8-difluoro-4-methylumbelliferyl phosphate (DiFMUP) (Invitrogen);
activating peptide: IRS1_pY1172(dPEG8)pY1222 (IRS1) (BPS Bioscience);
terminator: bpv(phen) (bpv) (Abcam).
SHP2 concentration: 0.5 nM;
DiFMUP concentration: 200 μM;
IRS-1 concentration: 0.5 μM;
bpv concentration: 160 μM;
buffer systems: 60 mM Hepes pH 7.2; 75 mM NaCl; 75 mM KCl; 0.05% surfactant P20; 1 mM EDTA; 5 mM DTT;
incubation duration of compound and enzyme: 60 minutes;
reaction time of enzyme and substrate: 30 minutes;
parameters for microplate reader: BMG PHERAstar fluorescence microplate reader at an excitation wavelength of 340 nm and an emission wavelength of 450 nm.
Test group: A mixture of the test compound and the phosphatase SHP2 together with the activating peptide IRS-1 were incubated in the buffer system at room temperature for 60 minutes. The substrate DiFMUP was added to initiate the reaction and incubated at room temperature for 30 minutes. Thereafter, bpv was added to terminate the reaction. The reaction plate was placed in the microplate reader, and the fluorescence intensities of the wells in the plate were measured using an endpoint assay.
Negative group: The experimental method for the negative group was the same as that for the test group, except that the test compound was substituted with 0.05% aqueous solution of DMSO.
Blank group: The experimental method for the blank group was the same as that for the test group, except that the test compound was substituted with 0.05% aqueous solution of DMSO and that SHP2 was not added.
The relative inhibitory activity was calculated for the test group at each concentration based on the following equation: inhibition rate (%)=100%−(the fluorescence intensity of the test group−the fluorescence intensity of the blank group)/(the fluorescence intensity of the negative group−the fluorescence intensity of the blank group)×100%. The half maximal inhibitory concentration (IC50) of the compound was calculated by fitting the curve according to the four-parameter logistic model.

[2] = test system: KYSE-520 cell (human esophageal squamous cell carcinoma cell); assay: Inhibition of the proliferation activity of KYSE-520 cell (CellTiter-Glo); format: cell-based; conditions: 120 h, KYSE-520 cell proliferation, 5 days
Experimental: Test Example 2: Experiment on the Inhibition of the Proliferation Activity of KYSE-520 Cell (Human Esophageal Squamous Cell Carcinoma Cell)
cell: KYSE-520 (JCRB Cell Bank);
(§1) kit: CellTiter-Glo® Luminescent Cell Viability Assay Kit (Promega).
(§2) inoculation amount of cell: 1500 cells/well;
incubation conditions for compound: 37° C., 5% CO2;
(§3) incubation duration: 5 days;
(§4) detecting temperature: room temperature;
(§5) chemiluminescence detection using the BMG PHERAstar FS reader.
(§6) Cells were cultured in a medium containing 10% fetal bovine serum under the culture conditions of 37° C. and 5% CO2. An appropriate amount of cells were plated into a 96-well plate and cultured overnight in an incubator to allow the cells to adhere to the wall. The following day, the medium was removed and a complete medium containing a pre-diluted compound was added and incubated at 37° C. for 5 days. On the fifth day, the detection reagent CellTiter-Glo® was added into each well. Chemiluminescence was adopted to detect the relative luminescence units (RLUs) of the wells.
(§7) The result of a well containing cell-free medium, treated with CellTiter-Glo®, was obtained as the blank value. Cell viability (%)=(sample RLU−blank RLU)/(vehicle RLU−blank RLU)×100%, and maximum inhibition rate (%)=100%−cell viabilitymax. conc. (%). The half maximal inhibitory concentration (IC50) of the compound was calculated by fitting the curve according to the four-parameter logistic model.

[3] = test system: NCI-H358 cell (human non-small cell lung cancer cell); assay: Inhibition of the proliferation activity of NCI-H358 cell (CellTiter-Glo); format: cell-based; conditions: 120 h, 5 days
Experimental: Test Example 4: Experiment on the Inhibition of the Proliferation Activity of NCI-H358 Cell (Human Non-Small Cell Lung Cancer Cell)
cell: NCI-H358 (Nanjing CoBioer);
as §1, §2
incubation conditions for compounds: 37° C., 5% CO2;
as §3, §4, §5, §6, §7

IC50 [1] [nM]	IC50 [2] [nM]	IC50 [3] [nM]	SMILES
2.4	–	–	C[C@@H]1OCC2(CCN(c3cnc(Sc4ccnc(N5CCCC5CO)c4Cl)c(N)n3)CC2)[C@@H]1N (stereo partly drawn) [Example 37, (1-(4-(3-amino-5-((3S,4S)-4-amino-3-methyl-2-oxa-8-azaspiro[4.5]decan-8-yl)pyrazin-2-ylthio)-3-chloropyridin-2-yl)pyrrolidin-2-yl)methanol]
5.3	–	–	C[C@@H]1OCC2(CCN(c3cnc(Sc4ccnc(N5CC(CS(C)(=O)=O)C5)c4Cl)c(N)n3)CC2)[C@@H]1N [Example 38, (3S,4S)-8-(6-amino-5-(3-chloro-2-(3-(methylsulfonylmethyl)azetidin-1-yl)pyridin-4-ylthio)pyrazin-2-yl)-3-methyl-2-oxa-8-azaspiro[4.5]decan-4-amine]
8.4	–	–	CC(C)(O)C1CN(c2nccc(Sc3cnc(N4CCC5(CC4)Oc4ccc(F)cc4[C@H]5N)cn3)c2Cl)C1 [Example 41, (R)-2-(1-(4-(5-(3-amino-5-fluoro-3H-spiro[benzofuran-2,4′-piperidin]-1′-yl)pyrazin-2-ylthio)-3-chloropyridin-2-yl)azetidin-3-yl)propan-2-ol]
2.49	50	50	CC(C)(O)C1CN(c2nccc(Sc3cnc(N4CCC5(CC4)Oc4ncccc4[C@H]5N)c(CO)n3)c2Cl)C1 [Example 44, (R)-2-(1-(4-(5-(3-amino-3H-spiro[furo[2,3-b]pyridine-2,4′-piperidin]-1′-yl)-6-(hydroxymethyl)pyrazin-2-ylthio)-3-chloropyridin-2-yl)azetidin-3-yl)propan-2-ol]
2.3	270	–	CC(C)(O)C1CN(c2nccc(Sc3cnc(N4CCC5(CC4)CCC4(CC4)[C@H]5N)c(CO)n3)c2Cl)C1 [Example 49, 2-(1-(4-(5-(4-amino-8-azadispiro[2.1.5.2]dodecan-8-yl)-6-(hydroxymethyl)pyrazin-2-ylthio)-3-chloropyridin-2-yl)azetidin-3-yl)propan-2-ol]
4.84	–	–	Cc1nc(N2CCC3(CC2)Cc2ncccc2[C@H]3N)c(CO)nc1Sc1ccnc(N2CC(C(C)(C)O)C2)c1Cl [Example 50, (S)-2-(1-(4-(5-(5-amino-5,7-dihydrospiro[cyclopenta[b]pyridine-6,4′-piperidin]-1′-yl)-6-(hydroxymethyl)-3-methylpyrazin-2-ylthio)-3-chloropyridin-2-yl)azetidin-3-yl)propan-2-ol]

More lines, now with the values behind:

SMILES	IC50 [1] [nM]	IC50 [2] [nM]	IC50 [3] [nM]
CC(N)C1(C)CCN(c2ncc(Sc3ccnc(N4CCCC4CO)c3Cl)nc2CO)CC1 (stereo not drawn) [Example 3]	3.48	1140	–
C[C@@H]1OCC2(CCN(c3ncc(Sc4ccnc(N5CCC(CO)C5)c4Cl)nc3CO)CC2)[C@@H]1N (stereo partly drawn) [Example 8, (3-((3S,4S)-4-amino-3-methyl-2-oxa-8-azaspiro[4.5]decan-8-yl)-6-(3-chloro-2-(3-(hydroxymethyl)pyrrolidin-1-yl)pyridin-4-ylthio)pyrazin-2-yl)methanol]	0.88	30	–
C[C@@H]1OCC2(CCN(c3ncc(Sc4ccnc(N5CCC(CC#N)C5)c4Cl)nc3CO)CC2)[C@@H]1N (stereo partly drawn) [Example 10, 2-(1-(4-(5-((3S,4S)-4-amino-3-methyl-2-oxa-8-azaspiro[4.5]decan-8-yl)-6-(hydroxymethyl)pyrazin-2-ylthio)-3-chloropyridin-2-yl)pyrrolidin-3-yl)acetonitrile]	1.22	40	–
C[C@@H]1OCC2(CCN(c3ncc(Sc4ccc(N5CC(C(C)(C)O)C5)nc4Cl)nc3CO)CC2)[C@@H]1N [Example 11, 2-(1-(5-(5-((3S,4S)-4-amino-3-methyl-2-oxa-8-azaspiro[4.5]decan-8-yl)-6-(hydroxymethyl)pyrazin-2-ylthio)-6-chloropyridin-2-yl)azetidin-3-yl)propan-2-ol]	9.3	–	–
C[C@@H]1OCC2(CCN(c3ncc(Sc4ccnc(N5CC(CF)C5)c4Cl)nc3CO)CC2)[C@@H]1N [Example 16, (3-((3S,4S)-4-amino-3-methyl-2-oxa-8-azaspiro[4.5]decan-8-yl)-6-(3-chloro-2-(3-(fluoromethyl)azetidin-1-yl)pyridin-4-ylthio)pyrazin-2-yl)methanol]	1	40	–
CC(C)(O)C1CN(c2nccc(Sc3cnc(N4CCC5(CC4)Oc4ccc(F)cc4[C@H]5N)c(CO)n3)c2Cl)C1 [Example 20, (R)-2-(1-(4-(5-(3-amino-5-fluoro-3H-spiro[benzofuran-2,4′-piperidin]-1′-yl)-6-(hydroxymethyl)pyrazin-2-ylthio)-3-chloropyridin-2-yl)azetidin-3-yl)propan-2-ol]	6.9	–	–
Cc1nc(N2CCC3(CC2)CO[C@@H](C)[C@H]3N)c(CO)nc1Sc1ccnc(N2CC(C(C)(C)O)C2)c1Cl [Example 32, 2-(1-(4-(5-((3S,4S)-4-amino-3-methyl-2-oxa-8-azaspiro[4.5]decan-8-yl)-6-(hydroxymethyl)-3-methylpyrazin-2-ylthio)-3-chloropyridin-2-yl)azetidin-3-yl)propan-2-ol]	3.7	–	–
COCC1(C)CN(c2nccc(Sc3cnc(N4CCC5(CC4)CO[C@@H](C)[C@H]5N)c(CO)n3)c2Cl)C1 [Example 33, (3-((3S,4S)-4-amino-3-methyl-2-oxa-8-azaspiro[4.5]decan-8-yl)-6-(3-chloro-2-(3-(methoxymethyl)-3-methylazetidin-1-yl)pyridin-4-ylthio)pyrazin-2-yl)methanol]	4.1	90	–
CC(C)(O)C1CN(c2nccc(Sc3cnc(N4CCC5(CC4)Cc4ncccc4[C@H]5N)cn3)c2Cl)C1 [Example 45, (S)-2-(1-(4-(5-(5-amino-5,7-dihydrospiro[cyclopenta[b]pyridine-6,4′-piperidin]-1′-yl)pyrazin-2-ylthio)-3-chloropyridin-2-yl)azetidin-3-yl)propan-2-ol]	4.1	210	–
